Here are results for 19 molecules from patent US20250115600A1, “COVALENT MODIFIERS OF AKT1 AND USES THEREOF” (Terremoto Biosciences, Inc., priority 2022, published 2025).

Where only a bound is given, the exact number is not on record here.

What all share (test): Live cell target engagement (NanoBRET) in HEK293 cells
Common to all, as to type: cell-based
A general note: Bioluminescence resonance energy transfer reports proximity on the nanometre scale.

The target in experiment [1] is AKT1 E17K (Homo sapiens (Human), UniProt P31749, E17K). Particulars: for IC50: HEK293, 2 hours at 37° C.
For experiment [2], the target named is AKT1 WT (Homo sapiens (Human), UniProt P31749). Particulars: HEK293, 2 hours at 37° C.
Experiment [3] deals with AKT2 (Homo sapiens (Human), UniProt P31751). Particulars: HEK293, 2 hours at 37° C.

By IC50 is commonly meant the concentration that inhibits the measured activity by half. Low values mean greater potency in that assay, high ones weaker potency in that assay.

Sequence of AKT2 (P31751 whole entry): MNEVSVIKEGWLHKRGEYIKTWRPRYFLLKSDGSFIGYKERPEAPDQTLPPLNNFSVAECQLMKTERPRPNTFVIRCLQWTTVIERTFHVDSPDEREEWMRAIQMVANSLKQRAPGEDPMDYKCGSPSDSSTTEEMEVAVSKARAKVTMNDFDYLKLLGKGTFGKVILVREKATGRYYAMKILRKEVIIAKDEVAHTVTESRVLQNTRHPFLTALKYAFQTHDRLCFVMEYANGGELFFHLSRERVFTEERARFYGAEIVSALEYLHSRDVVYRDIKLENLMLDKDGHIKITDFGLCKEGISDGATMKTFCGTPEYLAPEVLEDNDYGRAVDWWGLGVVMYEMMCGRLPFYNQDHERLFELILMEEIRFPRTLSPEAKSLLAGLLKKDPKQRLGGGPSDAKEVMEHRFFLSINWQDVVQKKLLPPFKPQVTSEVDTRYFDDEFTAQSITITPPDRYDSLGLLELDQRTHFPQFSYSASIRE
Sequence of AKT1 WT (P31749 whole entry): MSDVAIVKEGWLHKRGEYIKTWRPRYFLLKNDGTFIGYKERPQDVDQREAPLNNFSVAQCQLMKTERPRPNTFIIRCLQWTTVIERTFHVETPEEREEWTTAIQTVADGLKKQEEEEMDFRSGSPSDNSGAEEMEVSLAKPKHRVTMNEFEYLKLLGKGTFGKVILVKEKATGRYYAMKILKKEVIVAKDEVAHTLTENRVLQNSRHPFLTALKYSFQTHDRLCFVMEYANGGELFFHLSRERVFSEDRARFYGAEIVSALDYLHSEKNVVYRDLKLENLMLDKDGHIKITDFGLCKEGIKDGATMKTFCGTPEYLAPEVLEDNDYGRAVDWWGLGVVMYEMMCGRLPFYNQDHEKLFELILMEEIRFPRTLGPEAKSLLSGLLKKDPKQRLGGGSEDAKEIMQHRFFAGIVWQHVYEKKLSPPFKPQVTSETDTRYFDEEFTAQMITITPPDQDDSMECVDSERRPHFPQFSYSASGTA
Sequence of AKT1 E17K (P31749 whole entry E17K): as the sequence (P31749 whole entry) above, with E17K counted along it

With `Cc1ccc2nc(-c3cccnc3N)n(-c3ccc(CNC(=O)Cc4ccc(C=O)c(O)c4)cc3)c2n1` [Compound 24, N-({4-[2-(2-aminopyridin-3-yl)-5-methylimidazo[4,5-b]pyridin-3-yl]phenyl}methyl)-2-(4-formyl-3-hydroxyphenyl)acetamide], in experiment [1], the “AKT1 E17K IC50: Selectivity vs AKT1 WT” value is 4.3, the “AKT1 E17K IC50: Selectivity vs AKT2” value was found to be 210 and the half-inhibitory concentration (IC50) was under 100 nM. The same molecule had an IC50 in experiment [2] of under 100 nM. In experiment [3], this molecule showed an IC50 of over 500 nM.
As to `Nc1ncccc1-c1nc2ccc(NC3CC3)nc2n1-c1ccc(CNC(=O)Cc2ccc(C=O)c(O)c2)cc1` [Compound 25, N-({4-[2-(2-aminopyridin-3-yl)-5-(cyclopropylamino)imidazo[4,5-b]pyridin-3-yl]phenyl}methyl)-2-(4-formyl-3-hydroxyphenyl)acetamide], in experiment [1], the “AKT1 E17K IC50: Selectivity vs AKT1 WT” value stood at 4.3, the “AKT1 E17K IC50: Selectivity vs AKT2” value came out at 120 and the half-maximal inhibitory concentration (IC50) is under 100 nM. In experiment [2], this molecule came in with an IC50 of under 100 nM. Also, the IC50 in experiment [3] was over 500 nM.
`Nc1ncccc1-c1nc2ccc(C3CC3)nc2n1-c1ccc(CNC(=O)C(F)c2ccc(C=O)c(O)c2)cc1` (centres unmarked) [Compound 26, N-({4-[2-(2-aminopyridin-3-yl)-5-cyclopropylimidazo[4,5-b]pyridin-3-yl]phenyl}methyl)-2-fluoro-2-(4-formyl-3-hydroxyphenyl)acetamide]: in experiment [1], the “AKT1 E17K IC50: Selectivity vs AKT1 WT” value worked out at 2.4, the “AKT1 E17K IC50: Selectivity vs AKT2” value worked out at 190 and the IC50 is under 100 nM. Besides, the IC50 in experiment [2] was under 100 nM. For the same molecule, the IC50 in experiment [3] was over 500 nM.
As for `Nc1ncccc1-c1nc2ccc(C3CC3)nc2n1-c1ccc(CNC(=O)c2ccc(O)c(C=O)c2)cc1` [Compound 27, N-({4-[2-(2-aminopyridin-3-yl)-5-cyclopropylimidazo[4,5-b]pyridin-3-yl]phenyl}methyl)-3-formyl-4-hydroxybenzamide], the “AKT1 E17K IC50: Selectivity vs AKT1 WT” value in experiment [1] was 3.8. Also, the “AKT1 E17K IC50: Selectivity vs AKT2” value in experiment [1] worked out at 110. The IC50 in experiment [1] was under 100 nM; in experiment [2] it was 100 to 500 nM; in experiment [3] it was over 500 nM.
For `Nc1ncccc1-c1nc2ccc(-c3ccccc3)nc2n1-c1ccc(NC(=O)Cc2ccc(O)c(C=O)c2)cc1` [Compound 28, N-{4-[2-(2-aminopyridin-3-yl)-5-phenylimidazo[4,5-b]pyridin-3-yl]phenyl}-2-(3-formyl-4-hydroxyphenyl)acetamide], in experiment [1], the “AKT1 E17K IC50: Selectivity vs AKT1 WT” value was 1.3, the “AKT1 E17K IC50: Selectivity vs AKT2” value is on record as 17 and the concentration for half-maximal inhibition (IC50) was under 100 nM. This molecule also came in with an IC50 in experiment [2] of under 100 nM. In experiment [3], this molecule had an IC50 of 100 to 500 nM.
For the molecule `Nc1ncccc1-c1nc2ccc(-c3ccccc3)nc2n1-c1ccc(C(=O)NCc2ccc(O)c(C=O)c2)cc1` [Compound 29, 4-(2-(2-aminopyridin-3-yl)-5-phenyl-3H-imidazo[4,5-b]pyridin-3-yl)-N-(3-formyl-4-hydroxybenzyl)benzamide], in experiment [1], the “AKT1 E17K IC50: Selectivity vs AKT1 WT” value was determined as 3, the “AKT1 E17K IC50: Selectivity vs AKT2” value was 23 and the concentration for half-maximal inhibition (IC50) is under 100 nM. Also, the IC50 in experiment [2] was under 100 nM. The same molecule returned a half-inhibitory concentration (IC50) in experiment [3] of 100 to 500 nM.
As to `Nc1ncccc1-c1nc2ccc(-c3ccccc3)nc2n1-c1ccc(C(CO)NC(=O)Cc2ccc(C=O)c(O)c2F)cc1` (centres unmarked) [Compound 30, N-(1-(4-(2-(2-aminopyridin-3-yl)-5-phenyl-3H-imidazo[4,5-b]pyridin-3-yl)phenyl)-2-hydroxyethyl)-2-(2-fluoro-4-formyl-3-hydroxyphenyl)acetamide], the “AKT1 E17K IC50: Selectivity vs AKT1 WT” value in experiment [1] was 1.9. The “AKT1 E17K IC50: Selectivity vs AKT2” value in experiment [1] turned out to be 6.2. Also, the IC50 was under 100 nM in experiment [1], 100 to 500 nM in experiment [2] and over 500 nM in experiment [3].
Take `Cn1cc(-c2ccc3nc(-c4cccnc4N)n(-c4ccc(CNC(=O)Cc5ccc(C=O)c(O)c5)cc4)c3n2)cn1` [Compound 32, N-({4-[2-(2-aminopyridin-3-yl)-5-(1-methylpyrazol-4-yl)imidazo[4,5-b]pyridin-3-yl]phenyl}methyl)-2-(4-formyl-3-hydroxyphenyl)acetamide]: in experiment [1], the “AKT1 E17K IC50: Selectivity vs AKT1 WT” value was 9, the “AKT1 E17K IC50: Selectivity vs AKT2” value worked out at 110 and the IC50 is under 100 nM. Further, the IC50 in experiment [2] was in the range of 100 to 500 nM. The molecule also displayed an IC50 in experiment [3] of over 500 nM.
The like results for `COc1ccc2nc(-c3cccnc3N)n(-c3ccc(CNC(=O)Cc4ccc(C=O)c(O)c4)cc3)c2n1` [Compound 33, N-(4-(2-(2-aminopyridin-3-yl)-5-methoxy-3H-imidazo[4,5-b]pyridin-3-yl)benzyl)-2-(4-formyl-3-hydroxyphenyl)acetamide] were, in that order, 23, 400, under 100 nM, 100 to 500 nM and over 500 nM.
The corresponding values for `Nc1ncccc1-c1nc2ccc(-c3ccnc(N4CCOCC4)c3)nc2n1-c1ccc(CNC(=O)Cc2ccc(C=O)c(O)c2)cc1` [Compound 34, N-({4-[2-(2-aminopyridin-3-yl)-5-[2-(morpholin-4-yl)pyridin-4-yl]imidazo[4,5-b]pyridin-3-yl]phenyl}methyl)-2-(4-formyl-3-hydroxyphenyl)acetamide] are 10, 40, under 100 nM, 100 to 500 nM and over 500 nM.
The corresponding values for `Nc1ncccc1-c1nc2ccc(-n3cccn3)nc2n1-c1ccc(CNC(=O)Cc2ccc(C=O)c(O)c2)cc1` [Compound 35, N-({4-[2-(2-aminopyridin-3-yl)-5-(pyrazol-1-yl)imidazo[4,5-b]pyridin-3-yl]phenyl}methyl)-2-(4-formyl-3-hydroxyphenyl)acetamide] are 3.4, 140, under 100 nM, under 100 nM and 100 to 500 nM.
On to `Nc1ncccc1-c1nc2ccc(-c3ccccc3)nc2n1-c1ccc(CCNCCc2ccc(C=O)c(O)c2)cc1` [Compound 36, 4-(2-((4-(2-(2-aminopyridin-3-yl)-5-phenyl-3H-imidazo[4,5-b]pyridin-3-yl)phenethyl)amino)ethyl)-2-hydroxybenzaldehyde], for which, in experiment [1], the “AKT1 E17K IC50: Selectivity vs AKT1 WT” value is 2, the “AKT1 E17K IC50: Selectivity vs AKT2” value is listed as 9.2 and the IC50 was under 100 nM. In experiment [2], this molecule came in with an IC50 of under 100 nM. In experiment [3], the IC50 lay in the range of 100 to 500 nM.
For the molecule `CC(C(=O)NCc1ccc(-n2c(-c3cccnc3N)nc3ccc(-c4ccccc4)nc32)cc1)c1ccc(C=O)c(O)c1` (centres unmarked) [Compound 37], in experiment [1], the “AKT1 E17K IC50: Selectivity vs AKT1 WT” value is 11, the “AKT1 E17K IC50: Selectivity vs AKT2” value was determined as 180 and the IC50 is under 100 nM. The IC50 in experiment [2] was under 100 nM. In addition, the IC50 in experiment [3] was over 500 nM.
`Nc1ncccc1-c1nc2ccc(-c3ccccc3)nc2n1-c1ccc(N2CC(NCc3ccc(C=O)c(O)c3)C2)cc1` [Compound 38, 4-(((1-(4-(2-(2-aminopyridin-3-yl)-5-phenyl-3H-imidazo[4,5-b]pyridin-3-yl)phenyl)azetidin-3-yl)amino)methyl)-2-hydroxybenzaldehyde]: the “AKT1 E17K IC50: Selectivity vs AKT1 WT” value in experiment [1] was determined as 1.5. Besides, the “AKT1 E17K IC50: Selectivity vs AKT2” value in experiment [1] is listed as 15. Besides, the IC50 in experiment [1] is 100 to 500 nM; in experiment [2], 100 to 500 nM; in experiment [3], over 500 nM.
`CN(CCc1ccc(-n2c(-c3cccnc3N)nc3ccc(-c4ccccc4)nc32)cc1)Cc1ccc(C=O)c(O)c1` [Compound 39, 4-{[(2-{4-[2-(2-aminopyridin-3-yl)-5-phenylimidazo[4,5-b]pyridin-3-yl]phenyl}ethyl)(methyl)amino]methyl}-2-hydroxybenzaldehyde]: in experiment [1], the “AKT1 E17K IC50: Selectivity vs AKT1 WT” value amounted to 1.5, the “AKT1 E17K IC50: Selectivity vs AKT2” value was determined as 5.2 and the half-maximal inhibitory concentration (IC50) is under 100 nM. Further, in experiment [2], the half-inhibitory concentration (IC50) was 100 to 500 nM. The molecule further came in with an IC50 in experiment [3] of 100 to 500 nM.
Take `Nc1ncccc1-c1nc2ccc(-c3ccccc3)nc2n1-c1ccc(CCNCc2ccc(C=O)c(O)c2F)cc1` [Compound 40, 4-(((4-(2-(2-aminopyridin-3-yl)-5-phenyl-3H-imidazo[4,5-b]pyridin-3-yl)phenethyl)amino)methyl)-3-fluoro-2-hydroxybenzaldehyde]: in experiment [1], the “AKT1 E17K IC50: Selectivity vs AKT1 WT” value is listed as 2.2. In experiment [1], the “AKT1 E17K IC50: Selectivity vs AKT2” value stood at 6.7. The IC50 in experiment [1] was under 100 nM; in experiment [2], under 100 nM; in experiment [3], 100 to 500 nM.
Turning to `CC(C)(C)c1cc(C(=O)NCc2ccc(-n3c(-c4cccnc4N)nc4ccc(-c5ccccc5)nc43)cc2)cc(C=O)c1O` [Compound 41, N-(4-(2-(2-aminopyridin-3-yl)-5-phenyl-3H-imidazo[4,5-b]pyridin-3-yl)benzyl)-3-(tert-butyl)-5-formyl-4-hydroxybenzamide], in experiment [1], the “AKT1 E17K IC50: Selectivity vs AKT1 WT” value was 0.24, the “AKT1 E17K IC50: Selectivity vs AKT2” value is recorded as 0.77 and the half-inhibitory concentration (IC50) was over 500 nM. This molecule also returned an IC50 in experiment [2] of over 500 nM. This molecule also had an IC50 in experiment [3] of over 500 nM.
As for `Nc1ncccc1-c1nc2ccc(-c3ccccc3)nc2n1-c1ccc(CNC(=O)CCc2ccc(C=O)c(O)c2)cc1` [Compound 117], in experiment [1], the “AKT1 E17K IC50: Selectivity vs AKT1 WT” value was 0.47, the “AKT1 E17K IC50: Selectivity vs AKT2” value was determined as 2 and the IC50 fell in the range of 100 to 500 nM. The molecule also gave a concentration for half-maximal inhibition (IC50) in experiment [3] of 100 to 500 nM.
For the molecule `Nc1ncccc1-c1nc2ccc(-c3ccccc3)nc2n1-c1ccc(CNC(=O)c2ccc(C=O)c(O)c2)cc1` [Compound 138, N-(4-(2-(2-aminopyridin-3-yl)-5-phenyl-3H-imidazo[4,5-b]pyridin-3-yl)benzyl)-4-formyl-3-hydroxybenzamide], in experiment [1], the “AKT1 E17K IC50: Selectivity vs AKT1 WT” value came out at 0.52 and the IC50 was under 100 nM. The molecule further yielded an IC50 in experiment [2] of under 100 nM.
